Experimental data from the supplement of paper PMC10307832.

compound: C(C(=O)C(=O)O)Br [Bromopyruvate] + COc1cccc2cc(-c3nc([C@H]4CC[C@H](C(=O)O)CC4)n4ncnc(N)c34)[nH]c12 [OSI-027] (partner 0.5 µM); assay: relative viability (nuclei count vs DMSO), 5 days (fraction); higher = more cells survive; details: first compound 1 µM
Method in brief: (§1)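 Dosing by pin tool came one day after lung cancer cell lines were seeded in 1536-well plates, using either one drug or a fixed anchor-drug dose plus five library-drug doses (not always all listed) in √10 steps. After 5 days, nuclei were counted on 4× images. Relative viability is treated-well nuclei count divided by vehicle-well nuclei count, and values are medians of duplicate plates.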

Cell Line	relative viability
NCI-H23	0.605
NCI-H1792	0.798
NCI-H1355	0.462
NCI-H322M	0.515
NCI-H1437	0.921
NCI-H1755	0.77
NCI-H2085	0.794
HCC-15	0.711
NCI-H1793	0.329
PC-3 [JPC-3]	0.814
EKVX	0.746
LC-2-ad	0.839
NCI-H1944	0.462
NCI-H1975	0.742
SK-LU-1	0.378

same assay, conditions: first compound 3.162 µM

Cell Line	relative viability
NCI-H441	0.693
LCLC-97TM1	0.482
NCI-H2023	0.39
A-427	0.466
NCI-H460	0.82
NCI-H727	0.624
NCI-H1734	0.611
NCI-H520	0.259
NCI-H2405	0.659
SW 1573	0.674
NCI-H1395	0.672
201T	0.752
NCI-H1915	0.612
HCC-827	0.799
LXF-289	0.851
NCI-H2347	0.401
NCI-H650	0.545
CAL-12T	0.675

Cell Line	relative viability
NCI-H1651	0.704
EPLC-272H	0.244
NCI-H23	0.695
NCI-H1792	0.79
NCI-H1355	0.455
NCI-H322M	0.58
NCI-H1437	0.861
NCI-H1755	0.773
NCI-H2085	0.931
HCC-15	0.779
NCI-H1793	0.285
PC-3 [JPC-3]	0.77
EKVX	0.691
LC-2-ad	0.867
NCI-H1944	0.459
NCI-H1975	0.912
SK-LU-1	0.316

same assay, conditions: first compound 10 µM

Cell Line	relative viability
NCI-H441	0.76
LCLC-97TM1	0.735
NCI-H2023	0.49
A-427	0.418
NCI-H460	0.91
NCI-H727	0.682
NCI-H1734	0.731
NCI-H520	0.25
NCI-H2405	0.634
SW 1573	0.73
NCI-H1395	0.669
201T	0.71
NCI-H1915	0.665
HCC-827	0.803
LXF-289	0.8
NCI-H2347	0.379
NCI-H650	0.575
CAL-12T	0.85

Cell Line	relative viability
NCI-H1651	0.799
EPLC-272H	0.359
NCI-H23	0.612
NCI-H1792	0.782
NCI-H1355	0.372
NCI-H322M	0.576
NCI-H1437	0.943
NCI-H1755	0.729
NCI-H2085	0.798
HCC-15	0.781
NCI-H1793	0.249
PC-3 [JPC-3]	0.709
EKVX	0.827
LC-2-ad	0.9
NCI-H1944	0.49
NCI-H1975	0.687
SK-LU-1	0.303

same assay, conditions: first compound 31.62 µM

Cell Line	relative viability
NCI-H441	0.609
LCLC-97TM1	0.522
NCI-H2023	0.388
A-427	0.42
NCI-H460	0.661
NCI-H727	0.55
NCI-H1734	0.562
NCI-H520	0.23
NCI-H2405	0.556
SW 1573	0.475
NCI-H1395	0.591
201T	0.763
NCI-H1915	0.637
HCC-827	0.778
LXF-289	0.847
NCI-H2347	0.357
NCI-H650	0.501

Cell Line	relative viability
CAL-12T	0.595
NCI-H1651	0.694
EPLC-272H	0.251
NCI-H23	0.71
NCI-H1355	0.425
NCI-H322M	0.523
NCI-H1437	0.909
NCI-H1755	0.777
NCI-H2085	0.726
HCC-15	0.715
NCI-H1793	0.282
PC-3 [JPC-3]	0.783
EKVX	0.666
LC-2-ad	0.837
NCI-H1944	0.415
NCI-H1975	0.731
SK-LU-1	0.317

same assay, conditions: first compound 100 µM

Cell Line	relative viability
NCI-H441	0.571
LCLC-97TM1	0.51
NCI-H2023	0.374
A-427	0.422
NCI-H460	0.728
NCI-H727	0.638
NCI-H1734	0.595
NCI-H520	0.289
NCI-H2405	0.663
SW 1573	0.0547
NCI-H1395	0.637
201T	0.638
NCI-H1915	0.677
HCC-827	0.805
LXF-289	0.914
NCI-H2347	0.375
NCI-H650	0.59
CAL-12T	0.764

Cell Line	relative viability
NCI-H1651	0.63
EPLC-272H	0.301
NCI-H23	0.661
NCI-H1792	0.649
NCI-H1355	0.498
NCI-H322M	0.599
NCI-H1437	0.847
NCI-H1755	0.726
NCI-H2085	0.797
HCC-15	0.654
NCI-H1793	0.381
PC-3 [JPC-3]	0.735
EKVX	0.761
LC-2-ad	0.633
NCI-H1944	0.464
NCI-H1975	0.718
SK-LU-1	0.305

compound: C(C(=O)C(=O)O)Br [Bromopyruvate] + N=C(N)NC(=N)NCCc1ccccc1 [Phenformin] (partner 250 µM); assay: as above; details: first compound 1 µM
Method in brief: as §1

Cell Line	relative viability
NCI-H441	0.852
LCLC-97TM1	0.411
NCI-H2023	0.39
A-427	0.417
NCI-H460	0.512
NCI-H727	0.607
NCI-H1734	0.342
NCI-H520	0.646
NCI-H2405	0.403
SW 1573	0.387
NCI-H1395	0.419
201T	0.504
NCI-H1915	0.363
HCC-827	0.438
LXF-289	0.525
NCI-H2347	0.463
NCI-H650	0.532
CAL-12T	0.556

Cell Line	relative viability
NCI-H1651	0.323
EPLC-272H	0.31
NCI-H23	0.778
NCI-H1792	0.227
NCI-H1355	0.473
NCI-H322M	0.727
NCI-H1437	0.339
NCI-H1755	0.648
NCI-H2085	0.693
HCC-15	0.472
NCI-H1793	0.382
PC-3 [JPC-3]	0.495
EKVX	0.256
LC-2-ad	0.564
NCI-H1944	0.218
NCI-H1975	0.431
SK-LU-1	0.52

same assay, conditions: first compound 3.162 µM

Cell Line	relative viability
NCI-H441	0.945
LCLC-97TM1	0.397
NCI-H2023	0.415
A-427	0.353
NCI-H460	0.556
NCI-H727	0.778
NCI-H1734	0.471
NCI-H520	0.648
NCI-H2405	0.432
SW 1573	0.446
NCI-H1395	0.43
201T	0.489
NCI-H1915	0.371
HCC-827	0.43
LXF-289	0.537
NCI-H2347	0.35
NCI-H650	0.45
CAL-12T	0.491

Cell Line	relative viability
NCI-H1651	0.345
EPLC-272H	0.314
NCI-H23	0.842
NCI-H1792	0.345
NCI-H1355	0.481
NCI-H322M	0.756
NCI-H1437	0.293
NCI-H1755	0.609
NCI-H2085	0.757
HCC-15	0.5
NCI-H1793	0.452
PC-3 [JPC-3]	0.488
EKVX	0.24
LC-2-ad	0.621
NCI-H1944	0.225
NCI-H1975	0.443
SK-LU-1	0.533

same assay, conditions: first compound 10 µM

Cell Line	relative viability
NCI-H441	0.796
LCLC-97TM1	0.359
NCI-H2023	0.478
A-427	0.25
NCI-H460	0.658
NCI-H727	0.578
NCI-H1734	0.513
NCI-H520	0.623
NCI-H2405	0.421
SW 1573	0.385
NCI-H1395	0.424
201T	0.481
NCI-H1915	0.378
HCC-827	0.395
LXF-289	0.516
NCI-H2347	0.572
NCI-H650	0.414

Cell Line	relative viability
CAL-12T	0.667
NCI-H1651	0.429
EPLC-272H	0.309
NCI-H23	0.837
NCI-H1355	0.442
NCI-H322M	0.809
NCI-H1437	0.398
NCI-H1755	0.599
NCI-H2085	0.84
HCC-15	0.521
NCI-H1793	0.455
PC-3 [JPC-3]	0.458
EKVX	0.243
LC-2-ad	0.576
NCI-H1944	0.217
NCI-H1975	0.439
SK-LU-1	0.581

same assay, conditions: first compound 31.62 µM

Cell Line	relative viability
NCI-H441	0.743
LCLC-97TM1	0.439
NCI-H2023	0.419
A-427	0.335
NCI-H460	0.494
NCI-H727	0.622
NCI-H1734	0.392
NCI-H520	0.702
NCI-H2405	0.354
SW 1573	0.34
NCI-H1395	0.443
201T	0.453
NCI-H1915	0.379
HCC-827	0.389
LXF-289	0.504
NCI-H2347	0.312
NCI-H650	0.462
CAL-12T	0.58

Cell Line	relative viability
NCI-H1651	0.331
EPLC-272H	0.367
NCI-H23	0.809
NCI-H1792	0.386
NCI-H1355	0.483
NCI-H322M	0.796
NCI-H1437	0.281
NCI-H1755	0.642
NCI-H2085	0.749
HCC-15	0.466
NCI-H1793	0.413
PC-3 [JPC-3]	0.493
EKVX	0.246
LC-2-ad	0.599
NCI-H1944	0.206
NCI-H1975	0.407
SK-LU-1	0.506

same assay, conditions: first compound 100 µM

Cell Line	relative viability
NCI-H441	0.838
LCLC-97TM1	0.415
NCI-H2023	0.429
A-427	0.261
NCI-H460	0.508
NCI-H727	0.527
NCI-H1734	0.385
NCI-H520	0.473
NCI-H2405	0.388
SW 1573	0.0639
NCI-H1395	0.445
201T	0.455
NCI-H1915	0.383
HCC-827	0.413
LXF-289	0.531
NCI-H2347	0.566
NCI-H650	0.47
CAL-12T	0.529

Cell Line	relative viability
NCI-H1651	0.349
EPLC-272H	0.347
NCI-H23	0.857
NCI-H1792	0.252
NCI-H1355	0.504
NCI-H322M	0.784
NCI-H1437	0.288
NCI-H1755	0.71
NCI-H2085	0.698
HCC-15	0.456
NCI-H1793	0.401
PC-3 [JPC-3]	0.493
EKVX	0.233
LC-2-ad	0.525
NCI-H1944	0.214
NCI-H1975	0.367
SK-LU-1	0.494
